Columns and labels:
[1] = target: T1, PARP2 (Homo sapiens, UniProt Q9UGN5); assay: PARP2 enzymatic inhibition assay (PARP2 Colorimetric Assay Kit); format: biochemical
T1 construct: purchased BPS Bioscience 80581
Protocol: Briefly, the 1× histone mixture was added to each well and incubated overnight at 4 °C. Each well was washed three times with 200 µL 1× TBST buffer and filled with 200 µL Blocking buffer at room temperature for 90 min. Then, each well was filled with 25 µL of PARP master mixture (5 μL activated DNA + 2.5 μL 10× PARP Assay mixture + 2.5 μL 10× PARP buffer + 15 μL distilled water). Next, 5 µL of the compound of different concentrations was added to each well, and PARP enzyme was added and incubated at room temperature for 1 h. Next, streptavidin HRP solution was added and incubated at room temperature for 30 min. After adding 100 µL of colorimetric HRP substrate to each well, the plate was incubated until a blue color developed in the positive well, which contained PARP enzyme without inhibitors. The reaction was then quenched with 2 M sulfuric acid, and absorbance at 450 nm was measured using a microplate reader (BioTek, Winooski, VT, USA). After calculating the inhibition rate, the IC50 value was determined.

[2] = tested on: cGAS–STING signaling pathway; assay: Western blot of cGAS–STING pathway activation; format: cell-based, human; details: MDA-MB-436 cells, 48 h
Protocol: (§1) Western blot analysis was performed as previously described, and all western blot analyses were performed at least three times.
(§2) Western blot analysis was performed as previously described. Briefly, whole cell or tissue lysates were prepared using ice-cold Nonidet P-40 buffer mixed with protease and phosphatase inhibitors (Roche, IN, USA) and centrifuged at 14,000 × g at 4 °C for 10 min. The protein lysates were fractionated by sodium dodecyl sulfate–polyacrylamide gel electrophoresis (SDS–PAGE) and transferred to polyvinylidene fluoride (PVDF) membranes (Merck, Darmstadt, Germany). Membranes were incubated in 1× TBST buffer containing 5% nonfat powdered milk at room temperature for 2 h. The indicated primary antibody was incubated with PVDF membranes, followed by a washing step using 1× TBST and a secondary antibody conjugated to HRP. Signal detection was carried out using the Western ECL Substrate kit (Bio-Rad, Hercules, CA, USA). […]

[3] = tested on: MDA-MB-231 cells; assay: MTT cell viability assay, MDA-MB-231; details: Homo sapiens, MDA-MB-231, 72 h, read-out: IC50 MDA-MB-231
Protocol: (§3) The viability assay was measured by a 3-(4,5-dimethylthiazol-2-yl)−2,5-diphenyltetrazolium bromide (MTT) assay.
(§4) In brief, cells were seeded at a density of 6,000 cells in 96-well plates and cultured overnight. […] After aspiration of the medium, the formazan crystals were dissolved in 100 μL of DMSO. The absorbance at 490 nm was measured using a microplate reader (BioTek). All these analyses were performed at least three times.

[4] = tested on: H3K9 acetylation; assay: Western blot of histone H3 lysine 9 acetylation in TNBC cells; format: cell-based, human; details: TNBC cell lines, 48 h
Protocol: as §1, §2

[5] = tested on: MDA-MB-468 cells; assay: MTT cell viability assay, MDA-MB-468; details: Homo sapiens, MDA-MB-468, 72 h, read-out: IC50 MDA-MB-468
Protocol: as §3, §4

[6] = tested on: MCF-7 cells; assay: MTT cell viability assay, MCF-7; details: Homo sapiens, MCF7, 72 h, read-out: IC50 MCF-7
Protocol: as §3, §4

[7] = tested on: MDA-MB-436 cells; assay: MTT cell viability assay, MDA-MB-436; details: Homo sapiens, MDA-MB-436, 72 h, read-out: IC50 MDA-MB-436
Protocol: as §3, §4

[8] = tested on: p-H2A.X; assay: Western blot of H2A.X phosphorylation (DNA damage) in TNBC cells; format: cell-based, human; details: TNBC cell lines, 48 h
Protocol: as §1, §2

[9] = tested on: MDA-MB-436, MDA-MB-231, and MDA-MB-468 cells; assay: Colony formation assay; format: cell-based, human; details: approximately 14 days
Protocol: MDA-MB-231, MDA-MB-436 and MDA-MB-468 cells were seeded at a density of 2,000 cells in 6-well plates and cultured overnight. […] The cells were fixed with 4% paraformaldehyde (Merck) for 1 h at room temperature and stained with 0.1% crystal violet (Beyotime Biotechnology) for 30 min. Under an inverted phase contrast microscope (Leica Microsystems, Heidelberg, Germany), cell colonies were photographed at 5× magnification. All these analyses were performed at least three times.

[10] = tested on: TNBC cells; assay: Transwell migration assay; format: cell-based, human; details: 48 h, compared with the vehicle
Protocol: Cell migration and invasion assays were performed using Transwell chambers with 8 μm pores without Matrigel (for migration assay) or with Matrigel (for invasion assay).
Cell migration and invasion assays were performed using Transwell chambers with 8 μm pores (Corning) without Matrigel (for migration assay) or with Matrigel (for invasion assay). MDA-MB-436 and MDA-MB-231 cells were resuspended in serum-free Leibovitz’s L-15 medium and seeded in the upper chamber at a density of 12,000 cells/100 μL. The chambers were incubated in 24-well plates containing Leibovitz’s L-15 medium with 10% FBS and PARP/HDACi or DMSO. After 48 h, the cells were fixed with 4% paraformaldehyde and stained with crystal violet. The cells on the upper surface of the filters were removed by swabbing with a cotton swab, and the images were captured at 5× magnification under an inverted phase contrast microscope (Leica Microsystems).

[11] = tested on: RAD51; assay: Western blot of RAD51 expression in TNBC cells; format: cell-based, human; details: 2.5 μM compared with the positive controls at 5 μM, 24 h
Protocol: as §1, §2

T1 sequence (Q9UGN5 whole entry): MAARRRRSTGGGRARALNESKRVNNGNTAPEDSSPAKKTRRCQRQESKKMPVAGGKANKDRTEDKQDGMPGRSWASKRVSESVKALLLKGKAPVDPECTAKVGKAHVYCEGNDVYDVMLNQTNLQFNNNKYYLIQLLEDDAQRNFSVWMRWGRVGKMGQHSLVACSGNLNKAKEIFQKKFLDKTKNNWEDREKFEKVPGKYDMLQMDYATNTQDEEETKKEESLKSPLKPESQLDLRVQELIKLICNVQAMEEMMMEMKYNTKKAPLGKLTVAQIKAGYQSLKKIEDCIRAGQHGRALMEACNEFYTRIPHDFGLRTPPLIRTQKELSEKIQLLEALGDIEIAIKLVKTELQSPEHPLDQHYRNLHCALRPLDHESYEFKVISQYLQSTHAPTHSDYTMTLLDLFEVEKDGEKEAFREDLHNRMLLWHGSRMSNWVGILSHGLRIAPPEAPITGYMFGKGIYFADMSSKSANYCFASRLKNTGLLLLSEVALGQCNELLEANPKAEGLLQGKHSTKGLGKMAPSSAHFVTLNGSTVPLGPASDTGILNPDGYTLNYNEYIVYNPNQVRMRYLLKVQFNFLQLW

In the case of `Nc1cc(F)ccc1NC(=O)CCc1ccc(CN2CCN(C(=O)c3cc(Cc4n[nH]c(=O)c5ccccc45)ccc3F)CC2)cc1` [Compound B302], the IC50 [1] is reported as 0.057 µM, the “activation of the cGAS–STING signaling pathway” value [2] is reported as “concentration-dependent activation” and the IC50 [3] is reported as 2.83 ± 0.4 µM. The “acetylation of lysine 9 of histone H3 (H3K9)” value [4] was “elevated the acetylation”, the IC50 [5] was 1.27 ± 0.58 µM and the IC50 [6] was 4.93 ± 1.09 µM. For the same compound, the IC50 [7] was 4.12 ± 1.02 µM, the “p-H2A.X levels (DNA DSBs)” value [8] was “increased p-H2A.X (S136) levels” and the “colony formation of TNBC cells” value [9] was “reduction in colony formation”. The “migration of TNBC cells” value [10] was “considerably inhibited the migration”.

`Nc1cc(F)ccc1NC(=O)/C=C/c1ccc(CN2CCN(C(=O)c3cc(Cc4n[nH]c(=O)c5ccccc45)ccc3F)CC2)cc1` [Compound B102] was tested, and the IC50 [1] was 0.00213 µM, the IC50 [3] was 0.16 ± 0.02 µM and the “acetylation of lysine 9 of histone H3 (H3K9)” value [4] was “elevated the acetylation”. The IC50 [5] was 0.27 ± 0.11 µM, the “inhibitory effect on RAD51” value [11] was “more potent inhibitory effect on RAD51” and the IC50 [6] was 13.4 ± 3.2 µM. For the same compound, the IC50 [7] was 0.16 ± 0.05 µM, the “p-H2A.X levels (DNA DSBs)” value [8] was “increased p-H2A.X (S136) levels” and the “colony formation of TNBC cells” value [9] was “reduction in colony formation”. For the same compound, the “migration of TNBC cells” value [10] was “considerably inhibited the migration”.

Source: article PMC10770036, “Novel dual inhibitors of PARP and HDAC induce intratumoral STING-mediated antitumor immunity in triple-negative breast cancer” (Cell Death & Disease, 2024)
